Test results reported in BindingDB's records for doi:10.1016/j.ejmech.2020.112994 (North-West University, 2021).

Test: Inhibition of EGFR in human A-431 cells assessed as antiproliferative activity incubated for 48 hrs by MTS method

COc1cc2c(Nc3ccc(Br)cc3F)ncnc2cc1OCC1CCN(C(=O)Cn2cncc2[N+](=O)[O-])CC1
IC50: 1640 nM
